Data on 13 molecules can be found in patent US12258332B2, “ASGPR cell surface receptor binding compounds and conjugates” (Lycia Therapeutics, Inc., priority 2021, dated 2025).

Entries after “also recorded” stand apart in the source; their conditions may differ. Where two headings read alike, the source gives them in different places.

For experiment [1], the target named is T1, ASGPR (Homo sapiens, UniProt P07306).
T1 construct: purchased Acro Biosystems
T1 sequence (P07306 1-291): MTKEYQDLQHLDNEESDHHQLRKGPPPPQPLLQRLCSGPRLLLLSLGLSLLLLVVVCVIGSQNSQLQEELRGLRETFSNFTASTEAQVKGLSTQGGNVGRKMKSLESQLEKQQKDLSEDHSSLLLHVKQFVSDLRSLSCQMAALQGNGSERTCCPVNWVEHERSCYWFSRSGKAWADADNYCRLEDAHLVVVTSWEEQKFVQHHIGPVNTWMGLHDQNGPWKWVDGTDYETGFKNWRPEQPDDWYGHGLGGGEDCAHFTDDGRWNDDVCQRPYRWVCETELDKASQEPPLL
Kind of experiment: ASGPR binding by fluorescence polarization assay (GalNac-Cy5 probe). As to conditions: for IC50: 80 nM ASGPR, 1 nM probe, 2 hr incubation. As to the method:
Assay Procedure: ASGPR binding was measured in black 96-well plates using a fluorescence polarization assay. A fluorescent probe consisting of a tri-GalNAc linked to Cy5 (GalNac-Cy5, depicted below) was custom synthesized. Example compounds were resuspended in DMSO and 3-fold serial dilutions were made at 100× final concentrations. Binding reactions were conducted in 100 μl final volume in 20 mM Hepes (pH 7.5) 50 mM NaCl 5 mM CaCl2 0.015% Triton X-100 1% DMSO with 80 nM ASGPR (Acro Biosystems) and 1 nM probe. Fluorescence polarization was measured using λex=620 nm, λem=688 nm on an Envision plate reader (Perkin Elmer) after 2 hr incubation time. Dose responses were conducted in duplicate and normalized to the response with DMSO (high) and 1 μM reference compound 18G (low) on each plate. IC50 values were determined by fitting to 4-parameter curves in GraphPad Prism.
Example monovalent compounds (depicted below) were assessed at 100 μM as compared to a reference compound 18G (e.g., intermediate compound 18G in Example 14) as a positive control, following the assay procedure outlined in Example 68.
Background: In fluorescence polarisation assays a small probe gives low polarisation when free and higher when bound to something large.

Experiment [2] has as its system HepG2 cells. Kind of experiment: Uptake of Alexa488-labelled target IgE bound to omalizumab (OMA) conjugates in HepG2 cells, flow cytometry. The class given is cell-based, human. Particulars: omalizumab (anti-IgE) conjugate bound to IgE-Alexa488, equal molar ratios; 1 hour. As to the method: (§1) The omalizumab conjugates of Example 60 were bound to IgE-Alexa488 (prepared according to Example 62), as follows: equal molar ratios of omalizumab (anti-IgE) conjugate and IgE-Alexa488 were added in tissue culture media for 30 minutes at room temperature. The resulting anti-IgE conjugate:IgE antibody-Alexa488 compositions were added to HepG2 cells (100 k cells/50 ul per well, n=2), and Alexa488 fluorescence levels in the cells were measured at 1 hour by flow cytometry. As the fluorescently labelled target (IgE antibody) accumulates in cells, the fluorescence presents a way to measure total intracellular uptake by cells over time.
as §1, with “OMA Ab” for “The omalizumab”, “example compounds I-160-I-163 and I-141” for “Example 60”, “by adapting procedure in” for “according to”, “61),” for “62),”, “OMA(anti-IgE)” for “omalizumab (anti-IgE)”
Background: Flow cytometry measures light scatter and fluorescence of single cells or particles in a stream.

[3] abbreviates: trivalent compounds, dose response curves.
The mark [4] stands for this setting: trivalent compounds, read-out: IC50.
[5] abbreviates: monovalent compounds, read-out: IC50 (MM).

With `O=C(O)CCCCCCCCCCC(=O)NC(COCCC(=O)NCCCCNC(=O)c1cccc(OCc2cn([C@H]3CO[C@H](CO)[C@H](O)[C@@H]3O)nn2)c1)(COCCC(=O)NCCCCNC(=O)c1cccc(OCc2cn([C@H]3CO[C@H](CO)[C@H](O)[C@@H]3O)nn2)c1)COCCC(=O)NCCCCNC(=O)c1cccc(OCc2cn([C@H]3CO[C@H](CO)[C@H](O)[C@@H]3O)nn2)c1` [1901 (I-171), 13,13-bis((3-((4-(3-((1-((3S,4R,5R,6R)-4,5-dihydroxy-6-(hydroxymethyl)tetrahydro-2H-pyran-3-yl)-1H-1,2,3-triazol-4-yl)methoxy)benzamido)butyl)amino)-3-oxopropoxy)methyl)-1-(3-((1-((3S,4R,5R,6R)-4,5-dihydroxy-6-(hydroxymethyl)tetrahydro-2H-pyran-3-yl)-1H-1,2,3-triazol-4-yl)methoxy)phenyl)-1,8,15-trioxo-11-oxa-2,7,14-triazahexacosan-26-oic acid], the “ASGPR binding affinity compared to reference compound 18G / other trivalent compounds” value in experiment [1] (setting [3]) was “comparable affinity as reference compound 18G”. Also, in experiment [1] (setting [4]), the IC50 (as a rule, the point on the concentration scale where inhibition reaches its midpoint) was at most 50 nM.
Taken in the same sequence, the figures for `O=C(O)CCCCCCCCCCC(=O)NC(COCCC(=O)NCCCCNC(=O)c1ccc(OCc2cn([C@H]3CO[C@H](CO)[C@H](O)[C@@H]3O)nn2)cc1)(COCCC(=O)NCCCCNC(=O)c1ccc(OCc2cn([C@H]3CO[C@H](CO)[C@H](O)[C@@H]3O)nn2)cc1)COCCC(=O)NCCCCNC(=O)c1ccc(OCc2cn([C@H]3CO[C@H](CO)[C@H](O)[C@@H]3O)nn2)cc1` [1902 (I-172), 13,13-bis((3-((4-(4-((1-((3S,4R,5R,6R)-4,5-dihydroxy-6-(hydroxymethyl)tetrahydro-2H-pyran-3-yl)-1H-1,2,3-triazol-4-yl)methoxy)benzamido)butyl)amino)-3-oxopropoxy)methyl)-1-(4-((1-((3S,4R,5R,6R)-4,5-dihydroxy-6-(hydroxymethyl)tetrahydro-2H-pyran-3-yl)-1H-1,2,3-triazol-4-yl)methoxy)phenyl)-1,8,15-trioxo-11-oxa-2,7,14-triazahexacosan-26-oic acid] were “comparable affinity as reference compound 18G” and at most 50 nM.
As for `CC(=O)N[C@H]1[C@H](OCCCCC(=O)NCCCNC(=O)CCOCC(N)(COCCC(=O)NCCCNC(=O)CCCCO[C@@H]2O[C@H](CO)[C@H](O)[C@H](O)[C@H]2NC(C)=O)COCCC(=O)NCCCNC(=O)CCCCO[C@@H]2O[C@H](CO)[C@H](O)[C@H](O)[C@H]2NC(C)=O)O[C@H](CO)[C@H](O)[C@@H]1O` [Compound 18G], the IC50 in experiment [1] (setting [5]) was at most 1000 nM; in experiment [1] (setting [4]) it was at most 50 nM.
As to `C#CC[C@H]1O[C@H](CO)[C@H](O)[C@H](O)[C@H]1NC(C)=O` [Compound 591], the “ASGPR binding affinity among the tested monomers” value in experiment [1] (monovalent compounds, dose response curves) was “highest affinity of the tested monomers”. Also, the IC50 in experiment [1] (setting [5]) was in the range of 1000 to 50000 nM.
For `CC(C)(C)C(=O)N[C@H]1CO[C@H](CO)[C@H](O)[C@@H]1O` [Compound 592], in experiment [1] (setting [5]), the half-inhibitory concentration (IC50) is above 50000 nM.
Take `C#CCCCO[C@H]1CO[C@H](CO)[C@H](O)[C@@H]1O` [Compound 593]: the “binding as a percentage of the activity of reference compound 18G” value in experiment [1] (monovalent compounds at 100 μM) is recorded as below 50%.
As to `O=C(O)CCCCCCCCCCC(=O)NC(CCC(=O)NCCOCCOCCn1cc(COc2nc(N[C@H]3CO[C@H](CO)[C@H](O)[C@@H]3O)cc(C(F)(F)F)n2)nn1)(CCC(=O)NCCOCCOCCn1cc(COc2nc(N[C@H]3CO[C@H](CO)[C@H](O)[C@@H]3O)cc(C(F)(F)F)n2)nn1)CCC(=O)NCCOCCOCCn1cc(COc2nc(N[C@H]3CO[C@H](CO)[C@H](O)[C@@H]3O)cc(C(F)(F)F)n2)nn1` [Compound 1920], the IC50 in experiment [1] (setting [4]) is above 100 nM.
Consider `CC(=O)N[C@H]1[C@H](OCCCCC(=O)NCCCNC(=O)CCOCC(COCCC(=O)NCCCNC(=O)CCCCO[C@@H]2O[C@H](CO)[C@H](O)[C@H](O)[C@H]2NC(C)=O)(COCCC(=O)NCCCNC(=O)CCCCO[C@@H]2O[C@H](CO)[C@H](O)[C@H](O)[C@H]2NC(C)=O)NC(=O)CCCCCCCCCCC(=O)O)O[C@H](CO)[C@H](O)[C@@H]1O` [Compound I-124acid, reference compound], for which the “ASGPR binding affinity compared to reference compound 18G / other trivalent compounds” value in experiment [1] (setting [3]) is listed as “reduced ASGPR binding affinity”. Moreover, the concentration for half-maximal inhibition (IC50) in experiment [1] (setting [4]) was above 100 nM.
For `CC(=O)N[C@H]1[C@H](OCCCCC(=O)NCCCNC(=O)CCOCC(COCCC(=O)NCCCNC(=O)CCCCO[C@@H]2O[C@H](CO)[C@H](O)[C@H](O)[C@H]2NC(C)=O)(COCCC(=O)NCCCNC(=O)CCCCO[C@@H]2O[C@H](CO)[C@H](O)[C@H](O)[C@H]2NC(C)=O)NC(=O)CCc2cn(CCOCCOCCOCCOCCOCCOCCOCCOCCOCCOCCOCCOCCOCCOCCOCCOCCOCCOCCOCCOCCOCCOCCOCCOCCC(=O)Oc3c(F)c(F)c(F)c(F)c3F)nn2)O[C@H](CO)[C@H](O)[C@@H]1O` [Compound I-137], in experiment [2], the “relative uptake activity of Alexa488 labeled-target IgE in HepG2 cells” value was “comparable activity to the reference conjugate; also recorded: comparable activity to a reference conjugate”.
As for `O=C(O)c1cccc(OCc2cn([C@H]3CO[C@H](CO)[C@H](O)[C@@H]3O)nn2)c1` [XB20, 3-((1-((3S,4R,5R,6R)-4,5-dihydroxy-6-(hydroxymethyl)tetrahydro-2H-pyran-3-yl)-1H-1,2,3-triazol-4-yl)methoxy)benzoic acid], the IC50 in experiment [1] (setting [5]) is 1000 to 50000 nM.
With `OC[C@H]1OC[C@H](Nc2cc(C(F)(F)F)ccn2)[C@@H](O)[C@H]1O` [XB23], the IC50 in experiment [1] (setting [5]) lay within 1000 to 50000 nM.
As for `NC(CCC(=O)NCCOCCOCCOCc1cn([C@H]2CO[C@H](CO)[C@H](O)[C@@H]2O)nn1)(CCC(=O)NCCOCCOCCOCc1cn([C@H]2CO[C@H](CO)[C@H](O)[C@@H]2O)nn1)CCC(=O)NCCOCCOCCOCc1cn([C@H]2CO[C@H](CO)[C@H](O)[C@@H]2O)nn1` [XB32, 4-amino-4-(1-(1-((3S,4R,5R,6R)-4,5-dihydroxy-6-(hydroxymethyl)tetrahydro-2H-pyran-3-yl)-1H-1,2,3-triazol-4-yl)-12-oxo-2,5,8-trioxa-11-azatetradecan-14-yl)-N1,N7-bis(2-(2-(2-((1-((3S,4R,5R,6R)-4,5-dihydroxy-6-(hydroxymethyl)tetrahydro-2H-pyran-3-yl)-1H-1,2,3-triazol-4-yl)methoxy)ethoxy)ethoxy)ethyl)heptanediamide], in experiment [1] (setting [3]), the “ASGPR binding affinity compared to reference compound 18G / other trivalent compounds” value is listed as “comparable affinity as reference compound 18G”. Besides, the IC50 in experiment [1] (setting [4]) is 50 to 100 nM.
For the molecule `NC(CCC(=O)NCCOCCOCCOCc1cn([C@H]2[C@H]3OC[C@](CO)(O3)[C@H](O)[C@@H]2O)nn1)(CCC(=O)NCCOCCOCCOCc1cn([C@H]2[C@H]3OC[C@](CO)(O3)[C@H](O)[C@@H]2O)nn1)CCC(=O)NCCOCCOCCOCc1cn([C@H]2[C@H]3OC[C@](CO)(O3)[C@H](O)[C@@H]2O)nn1` [XB40, 4-amino-4-(1-(1-((1S,2R,3R,4R,5S)-2,3-dihydroxy-1-(hydroxymethyl)-6,8-dioxabicyclo[3.2.1]octan-4-yl)-1H-1,2,3-triazol-4-yl)-12-oxo-2,5,8-trioxa-11-azatetradecan-14-yl)-N1,N7-bis(2-(2-(2-((1-((1S,2R,3R,4R,5S)-2,3-dihydroxy-1-(hydroxymethyl)-6,8-dioxabicyclo[3.2.1]octan-4-yl)-1H-1,2,3-triazol-4-yl)methoxy)ethoxy)ethoxy)ethyl)heptanediamide], in experiment [1] (setting [4]), the IC50 is at most 50 nM.
